Like-named read-outs stand apart in the source and are kept apart here. Where no end group is shown, it is not given here.
Key:
[1] = tested on: Bacillus subtilis ATCC 6633; assay type: cell-based
Procedure: (§1) MICs were determined by broth microdilution on Pseudomonas aeruginosa ATCC 27853, Escherichia coli K12, Staphylococcus aureus ATCC 25723, Micrococcus luteus NCIMB 13267, and Bacillus subtilis ATCC 6633 according to the Clinical and Laboratory Standards Institute. Typically, 100 μl of 0.5–1 × 10^6 cfu/ml of each bacterium in Mueller-Hinton medium broth (Oxoid) was incubated in 96-well microtiter plates with 100 μl of serial 2-fold dilutions of the peptides (from 100 to 0 μM) at 37 °C on a three-dimensional orbital shaker. The absorbance was measured after peptide addition at 600 nm using a Victor 2 plate reader (PerkinElmer Life Sciences). MICs were defined as the lowest peptide concentration after 24 h at 37 °C. All tests were done in triplicate.

Escherichia coli K12 = assay type: cell-based
Procedure: as §1

[2] = tested on: Micrococcus luteus NCIMB 13267; assay type: cell-based
Procedure: as §1

[3] = tested on: Pseudomonas aeruginosa ATCC 27853; assay type: cell-based
Procedure: as §1

S. aureus (ATCC6538) = assay type: cell-based, Staphylococcus aureus
human erythrocytes = assay: Hemolysis assay; assay type: cell-based
Procedure: Hemolysis was determined by incubating 10% (v/v) suspension of human erythrocytes with peptides. Erythrocytes were rinsed four times in 10 mM PBS, pH 7.2, by repeated centrifugation and resuspension (3 min at 3000 × g). Erythrocytes were incubated at room temperature for 1 h in either deionized water (fully hemolysed control), PBS, or with peptide in PBS. After centrifugation at 10,000 × g for 5 min, the supernatant was separated from the pellet and the absorbance measured at 550 nm. Absorbance of the suspension treated with deionized water defined complete hemolysis. The values below correspond to the percentage of hemolysis at tested concentrations. All tests were done in triplicate.

cBt = assay: Isothermal titration calorimetry of anti-cBt into cBt; assay type: binding; details: ITC, 20 °C
Procedure: Measurements were obtained using a Microcal VP-isothermal titration calorimeter and a calorimetric cell (initial volume 1.46 ml) with a 260-s equilibration time and a 120-s initial delay after each addition. The titrations were performed at 20 °C with stirring until no further enthalpy changes were observed. Binding isotherms were recorded for cBt (30 μM) following the injection of anti-cBt (2 μl aliquots, 1.4 mM) into the cell. The observed heats were corrected for dilution effects by titrating peptide solutions, as appropriate, into the buffer and using the heat of last injections due to negligible differences between the first and last injections. All the data were corrected for the volume of the added titrant and analyzed by proprietary software (Microcal Origin 7) using a one-site binding model to allow for the determination of association constants (Ka), changes in enthalpy (ΔH) and enthropy (ΔS). Each experiment was performed in triplicate.

S. aureus (ATCC 25723) = assay type: cell-based
Procedure: S. aureus (ATCC 25723) culture (1 ml) was centrifuged to give a cell pellet, which was washed twice with 10 mM phosphate buffer, pH 7.4, before being reconstituted in phosphate buffer to give A600 nm = 0.008. 1 ml of the solution was dispensed in a 2-well glass chamber (LabTek) with diluted (1/500) propidium iodide (1 mg/ml, from Invitrogen). The chambers with surface-settled bacteria (60 min) were mounted on a confocal microscope (Olympus) equipped with an incubation chamber at 37 °C. Propidium iodide fluorescence emission was monitored at 625 nm for 60 min (three frames/min) using an appropriate filter after the addition of peptide (1 ml). Recorded images (XYZ) were analyzed using Fiji software to plot the number of fluorescent (stain-dead) cells as a function of time.

E. coli = assay: Gram stain assay after overnight incubation with peptide; assay type: cell-based, Escherichia coli; details: incubated with peptide for 16 h, optical microscopy; anti-cBt:cBt 10:1 (100:10 μM)
Procedure: (§2) 20 μl of a bacterium culture was dispensed onto a glass slide and spread well. The slide was swiftly passed through a Bunsen flame to dry and fix cells before staining. The fixed bacteria were first covered in crystal violet (0.25%) for 30 s followed by washing with water (distilled, filtered 0.22 μm) until all of the excess stain was washed off, and then with iodine (1.0%) for 2 min before washing with a minimum amount of acetone needed to rinse off the iodine color. The cells were counterstained with safranin (0.5%) for 30 s, washed with water, and dried by a Bunsen flame. The obtained slides were viewed under a Leica DMLB fluorescent microscope. The images were obtained at ×100 magnification under oil and analyzed by ImageJ.

P. aeruginosa = assay: as above; assay type: cell-based, Pseudomonas aeruginosa; details: incubated with peptide for 16 h, optical microscopy; anti-cBt:cBt 10:1 (100:10 μM)
Procedure: as §2

[4] = broth microdilution, Mueller-Hinton broth, 24 h, 37 °C, A600, triplicate
[5] = human erythrocytes 10% (v/v) in PBS pH 7.2, 1 h, room temperature, A550, 50% cell death compared with untreated cells, triplicate

With “EAQNLEKEIAALEQAIQGLEKEIPALAQQIQALEL-NH2 [Anti-cBt]” the “Minimum inhibitory concentration (MIC) B. subtilis (ATCC6633)” value [1, 4] was over 200 µM, the “Minimum inhibitory concentration (MIC) E. coli (K12)” value (Escherichia coli K12; [4]) was over 200 µM and the “Minimum inhibitory concentration (MIC) M. luteus (NCIMB 13267)” value [2, 4] was over 200 µM. For the same substance, the “Minimum inhibitory concentration (MIC) P. aeruginosa (ATCC27853)” value [3, 4] was over 200 µM, the “Minimum inhibitory concentration (MIC) S. aureus (ATCC6538)” value (S. aureus (ATCC6538); [4]) was over 200 µM and the “HE (LC50)” value (human erythrocytes; [5]) was “≫250 μM”. For the same substance, the “association (binding) constant (Ka)” value (cBt; anti-cBt (1.4 mM) injected into cBt (30 μM), one-site binding model, triplicate) was 2.8 ± 0.2 × 10^6 M^−1, the ΔG of binding (cBt; anti-cBt into cBt (30 μM)) was -7.8 kcal/mol and the “binding enthalpy (ΔH)” value (cBt; anti-cBt into cBt (30 μM), endothermic) was 9.7 kcal/mol. The “effect on killing of S. aureus at concentrations >100 μM” value (S. aureus (ATCC 25723); stain-dead S. aureus, propidium iodide, 37 °C) was “No effects”, the “killing rate at higher concentrations (>250 μM)” value (S. aureus (ATCC 25723); stain-dead S. aureus, cBt at MIC after 1 h = 100%) was 10% and the “effect on E. coli cell growth, Gram stain” value (E. coli) was “No obvious effects”. For the same substance, the “effect on P. aeruginosa cell growth, Gram stain” value (P. aeruginosa) was “No obvious effects”.
In the case of “GEFAQFEQEAQSLEQELSQLEQQLESL-NH2 [Anti-b27]”, the “Minimum inhibitory concentration (MIC) B. subtilis (ATCC6633)” value ([1]; ATCC 6633, 24 h) is reported as over 200 µM, the “Minimum inhibitory concentration (MIC) E. coli (K12)” value (Escherichia coli K12; K12, 24 h) is reported as over 200 µM and the “Minimum inhibitory concentration (MIC) M. luteus (NCIMB 13267)” value ([2]; NCIMB 13267, 24 h) is reported as over 200 µM. The “Minimum inhibitory concentration (MIC) P. aeruginosa (ATCC27853)” value ([3]; ATCC 27853, 24 h) was over 200 µM, the “Minimum inhibitory concentration (MIC) S. aureus (ATCC6538)” value (S. aureus (ATCC6538); ATCC6538, 24 h) was over 200 µM and the “HE (LC50)” value (human erythrocytes; pH 7.2) was “≫250 μM”.
In the case of “GRFKRFRKKFKKLFKKLSPVIPLLHLG-NH2 [b27, bovine myeloid antimicrobial peptide-27, reference compound]”, the “Minimum inhibitory concentration (MIC) B. subtilis (ATCC6633)” value ([1]; ATCC 6633, 24 h) is reported as 0.78 ± 0.01 µM, the “Minimum inhibitory concentration (MIC) E. coli (K12)” value (Escherichia coli K12; K12, 24 h) is reported as 3.13 ± 0.43 µM and the “Minimum inhibitory concentration (MIC) M. luteus (NCIMB 13267)” value ([2]; NCIMB 13267, 24 h) is reported as 0.74 ± 0.33 µM. For the same substance, the “Minimum inhibitory concentration (MIC) P. aeruginosa (ATCC27853)” value ([3]; ATCC 27853, 24 h) was 4.51 ± 1.56 µM, the “Minimum inhibitory concentration (MIC) S. aureus (ATCC6538)” value (S. aureus (ATCC6538); ATCC6538, 24 h) was over 100 µM and the “HE (LC50)” value (human erythrocytes; pH 7.2) was “≫250 μM”.
“KWKVFKKIEKMGRNIRNGIVKAGPAIAVLGEAKAL-NH2 (C-terminus assumed) [cB, cecropin B, reference compound]” was tested, and the “Minimum inhibitory concentration (MIC) B. subtilis (ATCC6633)” value ([1]; ATCC 6633, 24 h) was 50.7 ± 0.10 µM, the “Minimum inhibitory concentration (MIC) E. coli (K12)” value (Escherichia coli K12; K12, 24 h) was 0.62 ± 0.01 µM and the “Minimum inhibitory concentration (MIC) M. luteus (NCIMB 13267)” value ([2]; NCIMB 13267, 24 h) was 0.46 ± 0.20 µM. For the same substance, the “Minimum inhibitory concentration (MIC) P. aeruginosa (ATCC27853)” value ([3]; ATCC 27853, 24 h) was 1.56 ± 0.01 µM, the “Minimum inhibitory concentration (MIC) S. aureus (ATCC6538)” value (S. aureus (ATCC6538); ATCC6538, 24 h) was over 100 µM and the “HE (LC50)” value (human erythrocytes; [5]) was “≫250 μM”. For the same substance, the “killing rate in the first 30 min” value (S. aureus (ATCC 25723); ATCC 25723, 1 h, 100 μM, pH 7.4) was about 60%.

Source: publication PMC3711284, “Anti-antimicrobial Peptides” (The Journal of Biological Chemistry, 2013)
